# Data reported in ChEMBL document CHEMBL5653626 (ChemMedChem, 2016).
# Molecular target: T1, Solute carrier family 2, facilitated glucose transporter member 1 (Homo sapiens, UniProt P11166)
# T1 sequence (P11166 whole entry): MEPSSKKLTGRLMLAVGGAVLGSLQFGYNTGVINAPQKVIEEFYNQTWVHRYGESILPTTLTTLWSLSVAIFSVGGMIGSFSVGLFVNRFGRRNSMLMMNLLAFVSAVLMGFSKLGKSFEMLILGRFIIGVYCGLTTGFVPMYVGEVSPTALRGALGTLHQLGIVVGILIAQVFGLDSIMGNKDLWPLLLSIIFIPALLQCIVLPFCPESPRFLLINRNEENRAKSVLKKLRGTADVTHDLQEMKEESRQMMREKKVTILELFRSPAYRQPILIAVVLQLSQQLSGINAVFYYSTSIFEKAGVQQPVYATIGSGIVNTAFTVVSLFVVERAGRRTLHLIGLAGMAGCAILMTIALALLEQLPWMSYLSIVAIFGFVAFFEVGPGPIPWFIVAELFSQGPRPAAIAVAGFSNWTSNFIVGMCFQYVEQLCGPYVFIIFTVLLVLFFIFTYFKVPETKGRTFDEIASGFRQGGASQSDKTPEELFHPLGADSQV
# Test: (§1) Inhibition of human GLUT1 expressed in human DLD-1 cells assessed as reduction in glucose uptake by measuring decrease in ATP production incubated for 15 mins in presence of oxidative phosphorylation inhibitor rotenone by CellTiter-Glo Luminescent Cell Viability Assay
# Format: cell-based
# Conditions: not given
row,SMILES,IC50
1,Cc1c(NC(=O)c2cc(C(N)=O)nc3cc(F)ccc23)c(C(F)(F)F)nn1Cc1ncc(C#N)cn1,26 nM
2,Cc1c(NC(=O)c2cc(C(=O)N3CC(O)C3)nc3cc(F)ccc23)c(C(F)(F)F)nn1Cc1ccc(C#N)cc1,340 nM
3,Cc1c(NC(=O)c2cc(-c3ccc(F)cc3)nc3ccccc23)c(C(F)(F)F)nn1Cc1ccc(C#N)cc1,920 nM
4,Cc1c(NC(=O)c2cc(C(N)=O)nc3cc(F)cc(F)c23)c(C(F)(F)F)nn1Cc1ccc(C#N)cc1,1 nM
5,Cc1c(NC(=O)c2cc(C(N)=O)nc3cccc(F)c23)c(C(F)(F)F)nn1Cc1ccc(C#N)cc1,3 nM
6,Cc1nc(C)c(-c2cc(C(=O)Nc3c(C(F)(F)F)nn(Cc4ccc(C#N)cc4)c3C)c3ccccc3n2)s1,760 nM
7,Cc1c(NC(=O)c2cc(C(N)=O)nc3ncccc23)c(C(F)(F)F)nn1Cc1ccc(C#N)cc1,45 nM
8,Cc1c(NC(=O)c2cc(C(N)=O)nc3ccc(F)cc23)c(C(F)(F)F)nn1Cc1ccc(C#N)cc1,5 nM
9,Cc1c(NC(=O)c2cc(C(N)=O)nc3cc(F)ccc23)c(C(F)(F)F)nn1Cc1ccc(C(F)(F)F)cc1,9 nM
10,Cc1c(NC(=O)c2cc(C(N)=O)nc3cc(F)ccc23)c(C(F)(F)F)nn1Cc1cnc(C#N)cn1,5 nM
11,Cc1c(NC(=O)c2ccnc(C(N)=O)c2)c(C(F)(F)F)nn1Cc1ccc(C#N)cc1,200 nM
12,Cc1c(NC(=O)c2cc(C(N)=O)nc3scnc23)c(C(F)(F)F)nn1Cc1ccc(C#N)cc1,35 nM
13,Cc1c(NC(=O)c2cc(-c3cccnc3)nc3ccccc23)c(C(F)(F)F)nn1Cc1ccc(C#N)cc1,74 nM
14,Cc1c(NC(=O)c2cc(C(N)=O)nc3cc(F)ccc23)c(C(F)(F)F)nn1Cc1ccccc1C#N,3 nM
15,Cc1nn(Cc2ccc(F)cc2)c(C)c1N,960 nM
16,Cc1nn(-c2ccc(F)cc2)c(C)c1NC(=O)c1cc(C(F)(F)F)nc2ccc(Br)cc12,470 nM
17,Cc1ccccc1Cn1nc(C(F)(F)F)c(NC(=O)c2cc(C(N)=O)nc3cc(F)ccc23)c1C,7 nM
18,Cc1nn(Cc2ccc(C#N)cn2)c(C)c1NC(=O)c1cc(C(F)(F)F)nc2ccc(Br)cc12,2 nM
19,Cc1c(NC(=O)c2cc(C(=O)NCCN3CCOCC3)nc3cc(F)ccc23)c(C(F)(F)F)nn1Cc1ccc(C#N)cc1,340 nM
20,Cc1cccc(Cn2nc(C(F)(F)F)c(NC(=O)c3cc(C(N)=O)nc4cc(F)ccc34)c2C)c1,11 nM

# Molecular target: T2, Solute carrier family 2, facilitated glucose transporter member 3 (Homo sapiens, UniProt P11169)
# T2 sequence (P11169 whole entry): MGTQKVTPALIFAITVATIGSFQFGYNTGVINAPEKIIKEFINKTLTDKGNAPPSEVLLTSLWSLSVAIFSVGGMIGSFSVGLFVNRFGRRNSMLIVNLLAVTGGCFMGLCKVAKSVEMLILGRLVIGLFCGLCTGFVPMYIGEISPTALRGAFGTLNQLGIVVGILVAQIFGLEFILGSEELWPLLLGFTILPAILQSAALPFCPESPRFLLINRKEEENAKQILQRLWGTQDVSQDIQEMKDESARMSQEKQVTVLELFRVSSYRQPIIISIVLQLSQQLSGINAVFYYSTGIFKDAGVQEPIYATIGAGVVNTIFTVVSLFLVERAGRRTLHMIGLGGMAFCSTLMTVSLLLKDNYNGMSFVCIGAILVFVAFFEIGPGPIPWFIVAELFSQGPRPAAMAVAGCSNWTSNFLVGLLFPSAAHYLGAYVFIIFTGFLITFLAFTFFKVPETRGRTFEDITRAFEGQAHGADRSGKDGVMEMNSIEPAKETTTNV
# Test: Inhibition of human GLUT3 expressed in human GLUT1-/- DLD-1 cells assessed as reduction in glucose uptake by measuring decrease in ATP production incubated for 15 mins in presence of oxidative phosphorylation inhibitor rotenone by CellTiter-Glo Luminescent Cell Viability Assay
# Format: cell-based
# Conditions: not given
row,SMILES,IC50
1,Cc1c(NC(=O)c2cc(C(N)=O)nc3cc(F)cc(F)c23)c(C(F)(F)F)nn1Cc1ccc(C#N)cc1,470 nM
2,Cc1c(NC(=O)c2cc(C(N)=O)nc3cccc(F)c23)c(C(F)(F)F)nn1Cc1ccc(C#N)cc1,230 nM
3,Cc1c(NC(=O)c2cc(C(N)=O)nc3ncccc23)c(C(F)(F)F)nn1Cc1ccc(C#N)cc1,300 nM
4,Cc1c(NC(=O)c2cc(C(N)=O)nc3ccc(F)cc23)c(C(F)(F)F)nn1Cc1ccc(C#N)cc1,290 nM

# Molecular target: T3, Solute carrier family 2, facilitated glucose transporter member 4 (Homo sapiens, UniProt P14672)
# T3 sequence (P14672 whole entry): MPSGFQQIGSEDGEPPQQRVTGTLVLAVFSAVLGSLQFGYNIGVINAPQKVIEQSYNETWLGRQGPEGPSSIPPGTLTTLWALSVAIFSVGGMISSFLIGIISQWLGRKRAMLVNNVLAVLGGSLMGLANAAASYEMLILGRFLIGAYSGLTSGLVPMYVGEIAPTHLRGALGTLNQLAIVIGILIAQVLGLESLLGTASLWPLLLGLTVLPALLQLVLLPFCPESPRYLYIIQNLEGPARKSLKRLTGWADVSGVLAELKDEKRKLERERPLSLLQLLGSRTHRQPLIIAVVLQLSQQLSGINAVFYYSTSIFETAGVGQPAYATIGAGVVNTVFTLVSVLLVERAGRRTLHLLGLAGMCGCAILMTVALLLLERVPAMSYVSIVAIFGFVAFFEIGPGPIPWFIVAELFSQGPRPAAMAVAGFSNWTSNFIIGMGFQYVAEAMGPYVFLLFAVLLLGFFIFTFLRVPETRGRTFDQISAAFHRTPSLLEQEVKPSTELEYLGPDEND
# Test: as §1, with “GLUT4” for “GLUT1”, “CHO” for “human DLD-1”, “preincubated” for “incubated”, “for 20 mins followed by glucose addition and measured after” for “for”
# Format: cell-based
# Conditions: not given
row,SMILES,IC50
1,Cc1c(NC(=O)c2cc(C(N)=O)nc3cc(F)cc(F)c23)c(C(F)(F)F)nn1Cc1ccc(C#N)cc1,16 nM
2,Cc1c(NC(=O)c2cc(C(N)=O)nc3cccc(F)c23)c(C(F)(F)F)nn1Cc1ccc(C#N)cc1,94 nM
3,Cc1nc(C)c(-c2cc(C(=O)Nc3c(C(F)(F)F)nn(Cc4ccc(C#N)cc4)c3C)c3ccccc3n2)s1,910 nM
4,Cc1c(NC(=O)c2cc(C(N)=O)nc3ncccc23)c(C(F)(F)F)nn1Cc1ccc(C#N)cc1,1000 nM
5,Cc1c(NC(=O)c2cc(C(N)=O)nc3ccc(F)cc23)c(C(F)(F)F)nn1Cc1ccc(C#N)cc1,44 nM
6,Cc1c(NC(=O)c2cc(C(N)=O)nc3cc(F)ccc23)c(C(F)(F)F)nn1Cc1ccc(C(F)(F)F)cc1,910 nM
7,Cc1c(NC(=O)c2cc(C(N)=O)nc3cc(F)ccc23)c(C(F)(F)F)nn1Cc1cnc(C#N)cn1,16 nM
8,Cc1c(NC(=O)c2cc(C(N)=O)nc3scnc23)c(C(F)(F)F)nn1Cc1ccc(C#N)cc1,280 nM
9,Cc1c(NC(=O)c2cc(C(N)=O)nc3cc(F)ccc23)c(C(F)(F)F)nn1Cc1ccccc1C#N,88 nM
10,Cc1cccc(Cn2nc(C(F)(F)F)c(NC(=O)c3cc(C(N)=O)nc4cc(F)ccc34)c2C)c1,610 nM

# Test system: not listed separately
# Test: Clearance in rat hepatocytes
# Format: ADME, cell-based, Hepatocyte
# Conditions: not given
row,SMILES,CLhep predicted
1,Cc1c(NC(=O)c2cc(C(N)=O)nc3cc(F)ccc23)c(C(F)(F)F)nn1Cc1ncc(C#N)cn1,14.8 mL/min/kg
2,Cc1c(NC(=O)c2cc(C(N)=O)nc3cc(F)ccc23)c(C(F)(F)F)nn1Cc1cnc(C#N)cn1,20 mL/min/kg

# Test system: not listed separately
# Test: Stability in rat hepatocytes assessed as maximum bioavailability
# Format: ADME, Hepatocyte
# Conditions: read-out: Fmax
row,SMILES,Fh
1,Cc1c(NC(=O)c2cc(C(N)=O)nc3cc(F)ccc23)c(C(F)(F)F)nn1Cc1ncc(C#N)cn1,79%
2,Cc1c(NC(=O)c2cc(C(N)=O)nc3cc(F)ccc23)c(C(F)(F)F)nn1Cc1cnc(C#N)cn1,72%

# Test system: not listed separately
# Test: Clearance in human liver microsomes
# Format: ADME, Microsome
# Conditions: not given
row,SMILES,CLhep predicted
1,Cc1c(NC(=O)c2cc(C(N)=O)nc3cc(F)ccc23)c(C(F)(F)F)nn1Cc1ncc(C#N)cn1,3.67 mL/min/kg
2,Cc1c(NC(=O)c2cc(C(N)=O)nc3cc(F)ccc23)c(C(F)(F)F)nn1Cc1cnc(C#N)cn1,8.83 mL/min/kg

# Test system: not listed separately
# Test: Stability in human liver microsomes assessed as maximum bioavailability
# Format: ADME, Microsome
# Conditions: read-out: Fmax
row,SMILES,Fh
1,Cc1c(NC(=O)c2cc(C(N)=O)nc3cc(F)ccc23)c(C(F)(F)F)nn1Cc1ncc(C#N)cn1,83%
2,Cc1c(NC(=O)c2cc(C(N)=O)nc3cc(F)ccc23)c(C(F)(F)F)nn1Cc1cnc(C#N)cn1,60%
